By IC50 is commonly meant the concentration needed to halve the response being measured.

The source of these data is the Kinase Knowledgebase extract (Sharma et al. 2016).

For this assay, the target named is EGFR (UniProt P00533).
Chain of EGFR (P00533 whole entry, looked up): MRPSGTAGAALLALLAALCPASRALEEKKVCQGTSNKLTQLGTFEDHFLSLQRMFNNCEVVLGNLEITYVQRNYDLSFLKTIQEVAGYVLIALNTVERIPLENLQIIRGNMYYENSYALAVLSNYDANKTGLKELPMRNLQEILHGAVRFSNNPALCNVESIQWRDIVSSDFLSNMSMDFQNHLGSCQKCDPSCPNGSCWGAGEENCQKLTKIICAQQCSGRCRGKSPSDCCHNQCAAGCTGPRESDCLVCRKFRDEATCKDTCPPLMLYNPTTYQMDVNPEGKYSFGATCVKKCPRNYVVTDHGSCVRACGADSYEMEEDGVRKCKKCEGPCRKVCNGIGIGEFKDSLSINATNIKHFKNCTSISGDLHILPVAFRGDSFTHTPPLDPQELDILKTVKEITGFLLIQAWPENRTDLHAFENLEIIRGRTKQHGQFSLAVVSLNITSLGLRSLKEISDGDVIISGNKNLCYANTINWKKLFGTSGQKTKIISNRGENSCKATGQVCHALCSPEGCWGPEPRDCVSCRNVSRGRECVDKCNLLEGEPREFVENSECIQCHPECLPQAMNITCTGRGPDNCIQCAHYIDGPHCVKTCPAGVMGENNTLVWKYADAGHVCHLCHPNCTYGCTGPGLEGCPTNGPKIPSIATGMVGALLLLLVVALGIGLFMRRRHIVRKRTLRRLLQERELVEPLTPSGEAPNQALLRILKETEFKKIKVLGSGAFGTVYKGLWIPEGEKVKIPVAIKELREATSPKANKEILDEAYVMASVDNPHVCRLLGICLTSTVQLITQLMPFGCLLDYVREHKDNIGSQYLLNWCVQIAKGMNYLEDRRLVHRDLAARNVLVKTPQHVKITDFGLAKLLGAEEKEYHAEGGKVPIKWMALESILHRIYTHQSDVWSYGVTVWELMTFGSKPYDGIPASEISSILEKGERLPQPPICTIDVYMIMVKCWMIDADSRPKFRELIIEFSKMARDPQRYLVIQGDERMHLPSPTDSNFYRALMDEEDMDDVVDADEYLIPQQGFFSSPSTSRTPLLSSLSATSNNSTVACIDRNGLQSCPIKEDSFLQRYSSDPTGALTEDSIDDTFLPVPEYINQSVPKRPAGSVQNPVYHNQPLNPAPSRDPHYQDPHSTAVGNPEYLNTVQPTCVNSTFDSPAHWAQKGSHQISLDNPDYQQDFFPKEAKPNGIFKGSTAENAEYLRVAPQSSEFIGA
Molecule `COCCNC(=O)NCc1cccc(C#Cc2cncnc2Nc2ccc(OCc3cccc(F)c3)c(Cl)c2)n1` returned an IC50 of at most 10 µM.
On to `O=Cc1cccc(C#Cc2cncnc2Nc2ccc(OCc3cccc(F)c3)c(Cl)c2)c1`, for which the IC50 was at most 10 µM.
In the case of `Nc1cccc(C#Cc2cncnc2Nc2ccc(OCc3cccc(F)c3)c(Cl)c2)c1` it was at most 10 µM; in that of `OCc1nc(C#Cc2cncnc2Nc2ccc(OCc3cccc(F)c3)c(Cl)c2)cs1`, at most 10 µM.
`COCc1cccc(C#Cc2cncnc2Nc2ccc(OCc3cccc(F)c3)c(Cl)c2)n1` registered an IC50 of over 1 µM.
As to `C(=C\c1cncnc1Nc1ccc2c(cnn2Cc2ccccc2)c1)/c1cn[nH]c1`, the IC50 lay in the range of 0.1 to 1 µM.
In turn, `Oc1ccc(C#Cc2cncnc2Nc2ccc(OCc3cccc(F)c3)c(Cl)c2)cc1` came in with an IC50 of at most 10 µM.
`CC(=S)Nc1cccc(C#Cc2cncnc2Nc2ccc(OCc3cccc(F)c3)c(Cl)c2)c1` registered an IC50 of at most 10 µM.
`CS(=O)(=O)CCNc1cccc(C#Cc2cncnc2Nc2ccc(OCc3cccc(F)c3)c(Cl)c2)n1` showed an IC50 of over 1 µM.
`C(=C\c1cncnc1Nc1ccc(Oc2ccccc2)cc1)/c1ccccc1` yielded an IC50 of at most 10 µM.
The value for `CN(C)CCCC(=O)Nc1cccc(C#Cc2cncnc2Nc2ccc(OCc3cccc(F)c3)c(Cl)c2)n1` was under 0.1 µM; that for `Fc1cccc(COc2ccc(Nc3ncncc3C#Cc3cncnc3)cc2Cl)c1` was at most 10 µM; that for `CNC(=O)NCc1cccc(C#Cc2cncnc2Nc2ccc(OCc3cccc(F)c3)c(Cl)c2)n1` was at most 10 µM.
`Fc1cccc(COc2ccc(Nc3ncncc3C#Cc3cccs3)cc2Cl)c1` displayed an IC50 of at most 10 µM.
The value for `CC(=O)Nc1cccc(C#Cc2cncnc2Nc2ccc(OCc3cccc(F)c3)c(Cl)c2)n1` was at most 10 µM.
With `COC(=O)CCC(=O)Nc1cccc(C#Cc2cncnc2Nc2ccc(OCc3cccc(F)c3)c(Cl)c2)n1`, the IC50 lay within 0.1 to 1 µM.
The molecule `CC(=O)Nc1cccc(C#Cc2cncnc2Nc2ccc(OCc3cccc(F)c3)c(Cl)c2)c1` registered an IC50 of at most 10 µM.
In the case of `Nc1ncc(/C=C/c2cncnc2Nc2ccc(OCc3cccc(F)c3)c(Cl)c2)cn1` it was at most 10 µM; in that of `CS(=O)(=O)CC(=O)Nc1cccc(C#Cc2cncnc2Nc2ccc(OCc3cccc(F)c3)c(Cl)c2)c1`, at most 10 µM; in that of `Fc1cccc(COc2ccc(Nc3ncncc3C#Cc3ccccc3)cc2Cl)c1`, at most 10 µM.
`Fc1cccc(COc2ccc(Nc3ncncc3/C=C/c3ccccc3)cc2Cl)c1` gave an IC50 of under 0.1 µM.
The value for `CC(=O)NCCNCc1cccc(C#Cc2cncnc2Nc2ccc(OCc3cccc(F)c3)c(Cl)c2)n1` was at most 10 µM; that for `Fc1cccc(COc2ccc(Nc3ncncc3/C=C/c3ccncc3)cc2Cl)c1` was under 0.1 µM.
In the case of `N#CCCNCc1ccc(C#Cc2cncnc2Nc2ccc(OCc3cccc(F)c3)c(Cl)c2)o1` it was at most 10 µM; in that of `N#Cc1ccc(C#Cc2cncnc2Nc2ccc(OCc3ccc(F)cc3)c(Cl)c2)nc1N`, at most 10 µM; in that of `CS(=O)(=O)CCNC(=O)NCc1cccc(C#Cc2cncnc2Nc2ccc(OCc3cccc(F)c3)c(Cl)c2)n1`, under 0.1 µM.
For the molecule `Nc1ccc(C#Cc2cncnc2Nc2ccc(OCc3cccc(F)c3)c(Cl)c2)cc1`, the IC50 was at most 10 µM.
In turn, `O=Cc1ccc(C#Cc2cncnc2Nc2ccc(OCc3cccc(F)c3)c(Cl)c2)o1` had an IC50 of at most 10 µM.
In the case of `C(=C\c1cncnc1Nc1ccc2[nH]c(Cc3ccccc3)nc2c1)/c1ccsc1` it was at most 10 µM.
In the case of `CC(=O)NCc1cccc(C#Cc2cncnc2Nc2ccc(OCc3cccc(F)c3)c(Cl)c2)c1` it was at most 10 µM; in that of `Cn1cncc1C#Cc1cncnc1Nc1ccc(OCc2cccc(F)c2)c(Cl)c1`, at most 10 µM; in that of `O=C(NCCN1CCOCC1)NCc1cccc(C#Cc2cncnc2Nc2ccc(OCc3cccc(F)c3)c(Cl)c2)n1`, under 0.1 µM.
On to `Fc1cccc(COc2ccc(Nc3ncncc3C#Cc3cccc(CN4CCCCC4)n3)cc2Cl)c1`, for which the IC50 is under 0.1 µM.
`CN(C)Cc1cccc(C#Cc2cncnc2Nc2ccc(OCc3cccc(F)c3)c(Cl)c2)n1` yielded an IC50 of at most 10 µM.
